Data on one compound can be found in patent publication US7998992B2, “Oxazolidinone derivative having inhibitory activity on 11β-hydroxysteroid dehydrogenase type 1” (Institute of Medicinal Molecular Design, Inc., priority 2007, dated 2011).

The target of experiment [1] is Human 11β-HSD1 (Homo sapiens, UniProt P28845). As to the kind of experiment: Evaluation of compound against human 11β-HSD1 (HTRF cortisol assay). The format is biochemical. The following applies: substrate cortisone 5 μM, 37° C. for 2 hours, HTRF method. On the procedure:
(§1) After preincubating an inhibitor in a reaction solution consisting of 50 mM sodium phosphate buffer (pH 7.6), bovine serum albumin (1 mg/mL), NADPH (0.42 mg/mL), glucose-6-phosphate (1.26 mg/mL), glucose-6-phosphate dehydrogenase and an enzyme at room temperature for 30 minutes, cortisone (5 μM) which is a substrate was added (total amount 10 μL). After reacting at 37° C. for 2 hours, an XL-665-labeled cortisol solution (5 μL), and a Cryptate-labeled anti-cortisol antibody solution (5 μL) were added, a reaction was performed at room temperature for 2 hours, and fluorescence intensity (HTRF method) was measured. A cortisol concentration was measured from a standard curve prepared using a known concentration of cortisol for each assay.
Taking a concentration of cortisol generated in the absence of the inhibitor as a control value, 50% inhibition concentration (IC50 value) of the inhibitor against 11β-HSD1 was calculated from an inhibition curve plotting inhibition rate against the control value at each concentration of an inhibitor.
Background: TR-FRET usually uses a lanthanide donor and a delayed reading to cut background.

Experiment [2] concerns the target Mouse 11β-HSD1 (Mus musculus, UniProt P50172). Kind of experiment: Evaluation of compound against mouse 11β-HSD1 (HTRF corticosterone assay). Conditions: substrate 11-dehydrocorticosterone 2 μM, 37° C. for 2 hours, HTRF method. The format is biochemical. On the procedure: as §1, with “dehydrogenase,” for “dehydrogenase”, “11-dehydrocorticosterone (2” for “cortisone (5”, “measured.” for “measured. A cortisol concentration was measured from a standard curve prepared using a known concentration of cortisol for each assay.”
A corticosterone concentration was measured from a standard curve prepared using a known concentration of corticosterone for each assay.
Taking a concentration of corticosterone generated in the absence of the inhibitor as a control value, 50% inhibition concentration (IC50 value) of the inhibitor against 11β-HSD1 was calculated from an inhibition curve plotting inhibition rate against the control value at each concentration of the inhibitor.

Structures are written as SMILES.

Sequence of Human 11β-HSD1 (P28845 whole entry): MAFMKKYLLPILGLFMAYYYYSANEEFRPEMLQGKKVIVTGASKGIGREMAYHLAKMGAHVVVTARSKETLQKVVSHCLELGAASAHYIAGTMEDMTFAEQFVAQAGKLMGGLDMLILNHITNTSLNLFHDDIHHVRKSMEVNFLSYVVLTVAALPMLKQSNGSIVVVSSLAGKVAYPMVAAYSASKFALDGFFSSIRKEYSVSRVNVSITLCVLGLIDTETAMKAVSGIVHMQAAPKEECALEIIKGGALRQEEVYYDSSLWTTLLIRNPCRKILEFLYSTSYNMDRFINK
Sequence of Mouse 11β-HSD1 (P50172 whole entry): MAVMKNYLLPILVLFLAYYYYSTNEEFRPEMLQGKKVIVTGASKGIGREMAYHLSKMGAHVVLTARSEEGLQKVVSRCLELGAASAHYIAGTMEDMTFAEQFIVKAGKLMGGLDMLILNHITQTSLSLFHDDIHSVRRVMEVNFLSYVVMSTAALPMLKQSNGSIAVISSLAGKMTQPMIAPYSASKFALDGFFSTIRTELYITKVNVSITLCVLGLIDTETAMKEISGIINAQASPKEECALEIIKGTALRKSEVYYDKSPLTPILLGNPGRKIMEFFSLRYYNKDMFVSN

The IC50 is the concentration that gives 50% inhibition. Read a low IC50 as greater potency in that assay. For the compound `CCN(C[C@@H]1CN(C2CCCCCCC2)C(=O)O1)S(=O)(=O)c1ccccc1` [Compound I-21], the values for the IC50 in experiment [1] and in experiment [2] were 0.43 µM and 8.4 µM, respectively.
